Drawing on ChEMBL document CHEMBL1123349, “Analogues of 1,3-dipropyl-8-phenylxanthine: enhancement of selectivity at A1-adenosine receptors by aryl substituents” (J Med Chem, 1986), this text covers Ratio and Ki for 18 compounds.

pKi: −log10 of the molar value. “And” between values parts separate entries of the source, which are not always exact repeats. Equal values may be shown once. A value given as a limit tells only on which side of the number the result lay.

The target in assay [1] is Adenosine receptors; A1 & A2 (Rattus norvegicus) (UniProt P29276+P25099+P30543). As to the kind of experiment: Selectivity ratio was expressed as the ratio of binding affinity towards Adenosine A2 receptor to that of Adenosine A1 receptor in rat.
The target of another assay is Adenosine A2 receptor (Rattus norvegicus, UniProt P29276+P30543). As to the kind of experiment: Binding affinity against A2 adenosine receptors of the central nervous system. It counts as protein assay.
The target of the next assay is T1, Adenosine receptor A1 (Rattus norvegicus, UniProt P25099).
T1 sequence (P25099 whole entry): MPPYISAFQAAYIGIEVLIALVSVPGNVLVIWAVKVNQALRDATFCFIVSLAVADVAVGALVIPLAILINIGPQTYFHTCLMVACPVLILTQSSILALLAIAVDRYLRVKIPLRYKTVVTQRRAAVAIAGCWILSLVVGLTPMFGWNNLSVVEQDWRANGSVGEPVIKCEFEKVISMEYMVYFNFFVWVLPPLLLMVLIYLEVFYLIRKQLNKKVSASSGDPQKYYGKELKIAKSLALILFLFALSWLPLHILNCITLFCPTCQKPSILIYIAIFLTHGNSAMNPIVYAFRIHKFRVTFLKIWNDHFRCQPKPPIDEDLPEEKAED
Put plainly: Binding affinity against A1 adenosine receptors of the central nervous system.

As for `CCCn1c(=O)c2nc(-c3ccc(N(C)C)cc3)[nH]c2n(CCC)c1=O`, the Ratio in assay [1] amounted to 2.2. At Adenosine A2 receptor, the inhibition constant (Ki) (usually the dissociation constant of the complex between target and ligand, obtained from inhibition or displacement) is reported as 100 nM. In addition, at Adenosine receptor A1, the pKi (in general, −log10 of the Ki, conventionally taken in molar units) was 7.35.

Take `CCCn1c(=O)c2nc(-c3ccc(OC(C)=O)cc3)[nH]c2n(CCC)c1=O`: the Ratio in assay [1] was determined as 1.5. For the same compound, the Ki at Adenosine A2 receptor is given as 12 nM. Moreover, the pKi on Adenosine receptor A1 was 8.10.

For the compound `CCCn1c(=O)c2nc(-c3ccc(Cl)cc3OC)[nH]c2n(CCC)c1=O`, in assay [1], the Ratio was greater than 7. On Adenosine A2 receptor, this compound returned a Ki greater than 3000 nM. The compound also showed a pKi at Adenosine receptor A1 of 6.38.

For `CCCn1c(=O)c2nc(-c3ccc(N)cc3N)[nH]c2n(CCC)c1=O`, the Ratio in assay [1] stood at 2.8. Moreover, the Ki at Adenosine A2 receptor turned out to be 13 nM. In addition, the pKi on Adenosine receptor A1 is 8.34.

For the compound `CCCn1c(=O)c2nc(-c3ccc(S(=O)(=O)O)cc3)[nH]c2n(CCC)c1=O`, the Ratio in assay [1] is 3.4. On Adenosine A2 receptor, this compound registered an inhibition constant (Ki) of 710 nM.

For the compound `CCCn1c(=O)c2[nH]c(-c3ccc(O)c(Cl)c3)nc2n(CCC)c1=O`, the negative logarithm of the Ki (pKi) on Adenosine receptor A1 is 7.44.

`CCCn1c(=O)c2[nH]c(-c3ccc(O)cc3O)nc2n(CCC)c1=O`: the pKi on Adenosine receptor A1 is 7.82.

As to `CCCn1c(=O)c2nc(-c3ccc(Cl)cc3N)[nH]c2n(CCC)c1=O`, the Ratio in assay [1] was 400. Besides, the Ki on Adenosine A2 receptor is given as 1000 nM.

Consider `CCCn1c(=O)c2nc(-c3ccc(N)cc3)[nH]c2n(CCC)c1=O`, for which, in assay [1], the Ratio came out at 1. Further, the Ki at Adenosine A2 receptor is 28 nM. The same compound had a pKi on Adenosine receptor A1 of 7.57.

Take `CCCn1c(=O)c2nc(-c3ccc(F)cc3F)[nH]c2n(CCC)c1=O`: in assay [1], the Ratio is 5.9. The same compound showed a Ki on Adenosine A2 receptor of 290 nM.

Consider `CCCn1c(=O)c2nc(-c3cc(O)ccc3O)[nH]c2n(CCC)c1=O`, for which the Ratio in assay [1] came to 9.7. This compound also returned a Ki at Adenosine A2 receptor of 3500 nM. The pKi at Adenosine receptor A1 was 6.44.

The compound `CCCn1c(=O)c2[nH]c(-c3ccc(F)cc3F)nc2n(CCC)c1=O` showed a negative-log Ki (pKi) on Adenosine receptor A1 of 7.29.

For the compound `CCCn1c(=O)c2nc(-c3ccc(C(N)=O)cc3)[nH]c2n(CCC)c1=O`, the Ki at Adenosine A2 receptor was 72 nM and 55 nM. Further, the pKi on Adenosine receptor A1 is 8.15 and 7.60.

On to `CCCn1c(=O)c2nc(-c3ccc(S(N)(=O)=O)cc3)[nH]c2n(CCC)c1=O`, for which the Ratio in assay [1] was 15. Also, on Adenosine A2 receptor, the inhibitory constant (Ki) stood at 115 nM. Besides, the pKi at Adenosine receptor A1 was 8.07.

Take `CCCn1c(=O)c2nc(-c3cccc(O)c3O)[nH]c2n(CCC)c1=O`: in assay [1], the Ratio was found to be 6.4. Besides, the Ki at Adenosine A2 receptor was found to be 210 nM. On Adenosine receptor A1, this compound showed a pKi of 7.48.

Consider `CCCn1c(=O)c2nc(-c3ccc(OC)cc3)[nH]c2n(CCC)c1=O`, for which the pKi at Adenosine receptor A1 is 7.85.

With `CCCn1c(=O)c2nc(-c3ccc(O)c(Cl)c3)[nH]c2n(CCC)c1=O`, the Ratio in assay [1] was 3.9. For the same compound, the Ki on Adenosine A2 receptor was determined as 140 nM.

On to `CCCn1c(=O)c2[nH]c(-c3ccc(OC)cc3O)nc2n(CCC)c1=O`, for which the Ratio in assay [1] amounted to 89. At Adenosine A2 receptor, the Ki is 980 nM. Besides, the pKi at Adenosine receptor A1 is 7.96.
